Measured values from ChEMBL document CHEMBL5052856, “Inhibitors of apol1 and methods of using same” (2021).

Key:
[1] = system: Trypanosoma brucei brucei; assay: Antitrypanosomal activity against Trypanosoma brucei brucei assessed as trypanosome lysis using recombinant APOL1 protein G1 variant and measured by Alamar blue based fluoresence assay; assay type: functional, organism-based
Apolipoprotein L1 = Apolipoprotein L1 (Homo sapiens, UniProt O14791); assay: Inhibition of APOL1 G1 variant in human HEK293-T-REx cells measured by Thallium assay; assay type: cell-based

SMILES	IC50 [1] [nM]	IC50 (Apolipoprotein L1) [nM]
O=C1CC[C@H](NC(=O)[C@H]2C[C@H](c3c(-c4ccc(F)cc4)[nH]c4c(F)cc(F)cc43)C2)C1	250	0.25
O=C([C@H]1C[C@H](c2c(-c3ccc(F)cc3)[nH]c3c(F)cc(F)cc32)C1)N1CCN(CCO)CC1	> 1000	> 1000
O=C([C@H]1C[C@H](c2c(-c3ccc(F)cc3)[nH]c3c(F)cc(F)cc32)C1)N1CCCC1CCO (stereo partly drawn)	250	> 1000
CCN(CCO)C(=O)[C@H]1C[C@H](c2c(-c3ccc(F)cc3)[nH]c3c(F)cc(F)cc32)C1	250	0.25
O=C([C@H]1C[C@H](c2c(-c3ccc(F)cc3)[nH]c3c(F)cc(F)cc32)C1)N1CCC[C@@H](CO)C1	> 1000	> 1000
CC(CO)N1CCN(C(=O)[C@H]2C[C@H](c3c(-c4ccc(F)cc4)[nH]c4c(F)cc(F)cc43)C2)CC1 (stereo partly drawn)	> 1000	> 1000
O=C([C@H]1C[C@H](c2c(-c3ccc(F)cc3)[nH]c3c(F)cc(F)cc32)C1)N(CCO)CCCO	250	> 1000
CC(C)N(CCO)C(=O)[C@H]1C[C@H](c2c(-c3ccc(F)cc3)[nH]c3c(F)cc(F)cc32)C1	250	> 1000
O=C([C@H]1C[C@H](c2c(-c3ccc(F)cc3)[nH]c3c(F)cc(F)cc32)C1)N1CC(O)C(CO)C1 (stereo partly drawn)	250	> 1000
CC(C)(O)C1CN(C(=O)[C@H]2C[C@H](c3c(-c4ccc(F)cc4)[nH]c4c(F)cc(F)cc43)C2)C1	> 1000	> 1000
CC(O)CN(C)C(=O)[C@H]1C[C@H](c2c(-c3ccc(F)cc3)[nH]c3c(F)cc(F)cc32)C1 (stereo partly drawn)	250	> 1000
CC(=O)C1CCCCN1C(=O)[C@H]1C[C@H](c2c(-c3ccc(F)cc3)[nH]c3c(F)cc(F)cc32)C1 (stereo partly drawn)	250	> 1000
CC(O)CN(CCO)C(=O)[C@H]1C[C@H](c2c(-c3ccc(F)cc3)[nH]c3c(F)cc(F)cc32)C1 (stereo partly drawn)	< 250	0.25
O=C([C@H]1C[C@H](c2c(-c3ccc(F)cc3)[nH]c3c(F)cc(F)cc32)C1)N1CCCC[C@H]1CO	250	> 1000
CC1(C)CN(C(=O)[C@H]2C[C@H](c3c(-c4ccc(F)cc4)[nH]c4c(F)cc(F)cc43)C2)CC1O (stereo partly drawn)	> 1000	> 1000
O=C([C@H]1C[C@H](c2c(-c3ccc(F)cc3)[nH]c3c(F)cc(F)cc32)C1)N1CCCCC1CO (stereo partly drawn)	250	> 1000
O=C(NCCOCCO)[C@H]1C[C@H](c2c(-c3ccc(F)cc3)[nH]c3c(F)cc(F)cc32)C1	< 250	< 250
O=C([C@H]1C[C@H](c2c(-c3ccc(F)cc3)[nH]c3c(F)cc(F)cc32)C1)N1CCO[C@H](CO)C1	> 1000	> 1000
CC1(C)CN(C(=O)[C@H]2C[C@H](c3c(-c4ccc(F)cc4)[nH]c4c(F)cc(F)cc43)C2)CCC1O (stereo partly drawn)	> 1000	> 1000
CN(CC(C)(C)O)C(=O)[C@H]1C[C@H](c2c(-c3ccc(F)cc3)[nH]c3c(F)cc(F)cc32)C1	> 1000	> 1000
O=C(NCc1ccn[nH]1)[C@H]1C[C@H](c2c(-c3ccc(F)cc3)[nH]c3c(F)cc(F)cc32)C1	250	0.25
CC1(O)CC(C(=O)N2CCN(C(=O)[C@H]3C[C@H](c4c(-c5ccc(F)cc5)[nH]c5c(F)cc(F)cc54)C3)CC2(C)C)C1 (stereo partly drawn)	> 1000	> 1000

SMILES	IC50 [1] [nM]	IC50 (Apolipoprotein L1) [nM]
O=C([C@H]1C[C@H](c2c(-c3ccc(F)cc3)[nH]c3c(F)cc(F)cc32)C1)N1CCCC(CCO)C1 (stereo partly drawn)	> 1000	> 1000
O=C([C@H]1C[C@H](c2c(-c3ccc(F)cc3)[nH]c3c(F)cc(F)cc32)C1)N1CCCC(CO)C1 (stereo partly drawn)	> 1000	> 1000
NC(=O)[C@@H]1CCN(C(=O)[C@H]2C[C@H](c3c(-c4ccc(F)cc4)[nH]c4c(F)cc(F)cc43)C2)C1	> 1000	> 1000
O=C([C@H]1C[C@H](c2c(-c3ccc(F)cc3)[nH]c3c(F)cc(F)cc32)C1)N1CCOC(O)C1 (stereo partly drawn)	< 250	0.25
O=C([C@H]1C[C@H](c2c(-c3ccc(F)cc3)[nH]c3c(F)cc(F)cc32)C1)N1CCC(O)(CO)CC1	> 1000	> 1000
CCC1(O)CN(C(=O)[C@H]2C[C@H](c3c(-c4ccc(F)cc4)[nH]c4c(F)cc(F)cc43)C2)C1	> 1000	> 1000
O=C([C@H]1C[C@H](c2c(-c3ccc(F)cc3)[nH]c3c(F)cc(F)cc32)C1)N1CC(O)C(N2CCOCC2)C1 (stereo partly drawn)	> 1000	> 1000
O=C([C@H]1C[C@H](c2c(-c3ccc(F)cc3)[nH]c3c(F)cc(F)cc32)C1)N1CC(n2cccn2)C1	> 1000	> 1000
CO[C@H]1CCN(C(=O)[C@H]2C[C@H](c3c(-c4ccc(F)cc4)[nH]c4c(F)cc(F)cc43)C2)C1	> 1000	> 1000
O=C([C@H]1C[C@H](c2c(-c3ccc(F)cc3)[nH]c3c(F)cc(F)cc32)C1)N1CC(OCC2CCCO2)C1 (stereo partly drawn)	> 1000	> 1000
O=C([C@H]1C[C@H](c2c(-c3ccc(F)cc3)[nH]c3c(F)cc(F)cc32)C1)N1CCCC(O)C1 (stereo partly drawn)	250	> 1000
NC(=O)C1CCN(C(=O)[C@H]2C[C@H](c3c(-c4ccc(F)cc4)[nH]c4c(F)cc(F)cc43)C2)CC1	> 1000	> 1000
O=C([C@H]1C[C@H](c2c(-c3ccc(F)cc3)[nH]c3c(F)cc(F)cc32)C1)N1CCCCC1CCO (stereo partly drawn)	> 1000	> 1000
O=C([C@H]1C[C@H](c2c(-c3ccc(F)cc3)[nH]c3c(F)cc(F)cc32)C1)N1CCC(CO)(CO)CC1	> 1000	> 1000
O=C([C@H]1C[C@H](c2c(-c3ccc(F)cc3)[nH]c3c(F)cc(F)cc32)C1)N1CC[C@H](CO)[C@H](O)C1	> 1000	> 1000
C[C@H]1CN(C(=O)[C@H]2C[C@H](c3c(-c4ccc(F)cc4)[nH]c4c(F)cc(F)cc43)C2)CC[C@@H]1O	> 1000	> 1000
CC(O)C1CCN(C(=O)[C@H]2C[C@H](c3c(-c4ccc(F)cc4)[nH]c4c(F)cc(F)cc43)C2)CC1 (stereo partly drawn)	> 1000	> 1000
O=C([C@H]1C[C@H](c2c(-c3ccc(F)cc3)[nH]c3c(F)cc(F)cc32)C1)N1CCC(CCO)CC1	> 1000	> 1000
CC(=O)NC1CCCN(C(=O)[C@H]2C[C@H](c3c(-c4ccc(F)cc4)[nH]c4c(F)cc(F)cc43)C2)C1 (stereo partly drawn)	> 1000	> 1000
NC(=O)[C@H](CO)NC(=O)[C@H]1C[C@H](c2c(-c3ccc(F)cc3)[nH]c3c(F)cc(F)cc32)C1	250	0.25
CCC(O)(CCCO)CNC(=O)[C@H]1C[C@H](c2c(-c3ccc(F)cc3)[nH]c3c(F)cc(F)cc32)C1 (stereo partly drawn)	> 1000	> 1000
O=C([C@H]1C[C@H](c2c(-c3ccc(F)cc3)[nH]c3c(F)cc(F)cc32)C1)N1CCC2(COC2)C1	> 1000	> 1000

SMILES	IC50 [1] [nM]	IC50 (Apolipoprotein L1) [nM]
O=C([C@H]1C[C@H](c2c(-c3ccc(F)cc3)[nH]c3c(F)cc(F)cc32)C1)N1CCC(O)(O)CC1	250	> 1000
CC(C)[C@@H](CO)NC(=O)[C@H]1C[C@H](c2c(-c3ccc(F)cc3)[nH]c3c(F)cc(F)cc32)C1	> 1000	> 1000
CCN(C(=O)[C@H]1C[C@H](c2c(-c3ccc(F)cc3)[nH]c3c(F)cc(F)cc32)C1)C(C)CO (stereo partly drawn)	250	> 1000
CN(CC1(CO)CCOCC1)C(=O)[C@H]1C[C@H](c2c(-c3ccc(F)cc3)[nH]c3c(F)cc(F)cc32)C1	> 1000	> 1000
NC(=O)[C@@H]1CCCN1C(=O)[C@H]1C[C@H](c2c(-c3ccc(F)cc3)[nH]c3c(F)cc(F)cc32)C1	> 1000	> 1000
O=C([C@H]1C[C@H](c2c(-c3ccc(F)cc3)[nH]c3c(F)cc(F)cc32)C1)N(CCOCCO)C1CCC1	> 1000	> 1000
CC1CC(NC(=O)[C@H]2C[C@H](c3c(-c4ccc(F)cc4)[nH]c4c(F)cc(F)cc43)C2)C(=O)N1 (stereo partly drawn)	250	> 1000
O=C([C@H]1C[C@H](c2c(-c3ccc(F)cc3)[nH]c3c(F)cc(F)cc32)C1)N1CCOC(CO)C1 (stereo partly drawn)	> 1000	> 1000
O=C([C@H]1C[C@H](c2c(-c3ccc(F)cc3)[nH]c3c(F)cc(F)cc32)C1)N1CCOCC1CCO (stereo partly drawn)	> 1000	> 1000
O=C(NCC1(CO)COC1)[C@H]1C[C@H](c2c(-c3ccc(F)cc3)[nH]c3c(F)cc(F)cc32)C1	> 1000	> 1000
O=C([C@H]1C[C@H](c2c(-c3ccc(F)cc3)[nH]c3c(F)cc(F)cc32)C1)N1C[C@H]2C[C@@]2(CO)C1	> 1000	> 1000
O=C([C@H]1C[C@H](c2c(-c3ccc(F)cc3)[nH]c3c(F)cc(F)cc32)C1)N1C2CCC(C2)C1CO (stereo partly drawn)	> 1000	> 1000
O=C([C@H]1C[C@H](c2c(-c3ccc(F)cc3)[nH]c3c(F)cc(F)cc32)C1)N1CC[C@H](CO)C1	> 1000	> 1000
CN(C)C[C@@H]1CCN(C(=O)[C@H]2C[C@H](c3c(-c4ccc(F)cc4)[nH]c4c(F)cc(F)cc43)C2)C[C@H]1O	250	> 1000
O=C([C@H]1C[C@H](c2c(-c3ccc(F)cc3)[nH]c3c(F)cc(F)cc32)C1)N(CCO)c1cnccn1	> 1000	> 1000
O=C([C@H]1C[C@H](c2c(-c3ccc(F)cc3)[nH]c3c(F)cc(F)cc32)C1)N1C[C@@H]2[C@@H](CO)[C@@H]2C1	> 1000	> 1000
O=C([C@H]1C[C@H](c2c(-c3ccc(F)cc3)[nH]c3c(F)cc(F)cc32)C1)N1CCCC[C@@H]1CO	250	> 1000
O=C(NCCCO)[C@H]1C[C@H](c2c(-c3ccc(F)cc3)[nH]c3c(F)cc(F)cc32)C1	< 250	0.25
O=C([C@H]1C[C@H](c2c(-c3ccc(F)cc3)[nH]c3c(F)cc(F)cc32)C1)N1CC2(CC(O)C2)C1	> 1000	> 1000
C[C@H](O)CNC(=O)[C@H]1C[C@H](c2c(-c3ccc(F)cc3)[nH]c3c(F)cc(F)cc32)C1	250	0.25
